Key:
Tumor necrosis factor [1] = biological target: T1, Tumor necrosis factor (Homo sapiens, UniProt P01375); assay: Binding affinity to human GST-tagged TNF extracellular domain expressed in Escherichia coli BL21(DE3)pLysS cells by fluorescence spectrophotometric analysis
Tumor necrosis factor [2] = biological target: T1, Tumor necrosis factor; assay: Inhibition of human TNF assessed as reduction in TNF-induced cell death of actinomycin D activated mouse L929 cells preincubated for 30 mins followed by cell addition measured after 18 to 24 hrs by crystal violet staining based spectrophotometric analysis
Tumor necrosis factor [3] = biological target: T1, Tumor necrosis factor; assay: Binding affinity to recombinant human TNF assessed as inhibition of TNF-TNFR1 interaction incubated for 1 hr by ELISA

T1 sequence (P01375 whole entry, the tested form may be a part): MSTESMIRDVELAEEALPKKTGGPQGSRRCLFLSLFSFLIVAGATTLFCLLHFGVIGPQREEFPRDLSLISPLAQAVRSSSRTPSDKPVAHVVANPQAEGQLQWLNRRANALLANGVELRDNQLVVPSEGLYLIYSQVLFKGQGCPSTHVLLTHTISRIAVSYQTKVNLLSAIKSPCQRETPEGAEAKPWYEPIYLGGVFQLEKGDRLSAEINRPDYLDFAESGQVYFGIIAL

SMILES | Kd (Tumor necrosis factor [1]) | IC50 (Tumor necrosis factor [2]) | Kd (Tumor necrosis factor [1]; read-out: Kd) | IC50 (Tumor necrosis factor [3])
O=C(c1coc2ccccc2c1=O)N1CCN(Cc2cn(-c3cccc(C(F)(F)F)c3)c3ccc([N+](=O)[O-])cc23)CC1 | Not Active | Not Active |  | 
O=C(c1coc2ccccc2c1=O)N1CCN(C(=O)c2cn(-c3cccc(C(F)(F)F)c3)c3ccc([N+](=O)[O-])cc23)CC1 | Not Active | Not Active |  | 
O=C(c1ccccc1)N1CCN(C(=O)c2cn(-c3cccc(C(F)(F)F)c3)c3ccccc23)CC1 |  | Not Active | 15.2 µM | 
Cc1ccc2occ(CN(C)CCN(C)Cc3cn(-c4cccc(C(F)(F)F)c4)c4ccccc34)c(=O)c2c1 |  |  | 18.6 µM | 10 µM
CN(CCN(C)C(=O)c1cn(S(=O)(=O)c2cccc(N)c2)c2ccccc12)C(=O)c1coc2ccccc2c1=O |  |  | 0.95 µM | 20 µM
O=C(c1coc2ccccc2c1=O)N1CCN(C(=O)c2cn(-c3cccc([N+](=O)[O-])c3)c3ccc([N+](=O)[O-])cc23)CC1 |  |  | 0.74 µM | 20 µM
O=C(NCCCNC(=O)c1cn(S(=O)(=O)c2ccccc2)c2ccccc12)c1ccccc1 | Not Active | Not Active |  | 
O=C(NCCCCNC(=O)c1cn(S(=O)(=O)c2ccccc2)c2ccccc12)c1ccc2ccccc2c1 |  | Not Active | 18.7 µM | 
Nc1cccc(S(=O)(=O)n2cc(C(=O)N3CCN(C(=O)c4coc5ccccc5c4=O)CC3)c3ccccc32)c1 |  |  | 5.45 µM | 40 µM
O=C(c1ccccc1F)N1CCN(C(=O)c2c[nH]c3ccc([N+](=O)[O-])cc23)CC1 |  | Not Active | 17.9 µM | 
CN(CCN(C)C(=O)c1cn(-c2cccc(N)c2)c2ccccc12)C(=O)c1coc2ccccc2c1=O |  | Not Active | 35.2 µM | 
O=C(NCCCNC(=O)c1cn(S(=O)(=O)c2ccccc2)c2ccccc12)c1coc2ccccc2c1=O |  |  | 5.2 µM | 40 µM
CN(CCN(C)C(=O)c1cn(S(=O)(=O)c2ccccc2)c2ccccc12)C(=O)c1ccccc1 |  | Not Active | 17.3 µM | 
CN(CCN(C)C(=O)c1cn(S(=O)(=O)c2ccccc2)c2ccccc12)C(=O)c1ccccc1F | Not Active | Not Active |  | 
O=C(c1coc2ccccc2c1=O)N1CCN(C(=O)c2cn(S(=O)(=O)c3ccccc3)c3ccccc23)CC1 |  |  | 12.8 µM | 40 µM
CN(CCN(C)C(=O)c1cn(-c2cccc(C(F)(F)F)c2)c2ccc([N+](=O)[O-])cc12)C(=O)c1ccccc1F |  | Not Active | 10.3 µM | 
O=C(c1ccc2ccccc2c1)N1CCN(C(=O)c2cn(-c3cccc(C(F)(F)F)c3)c3ccccc23)CC1 | Not Active | Not Active |  | 
CN(CCN(C)C(=O)n1ccnc1)C(=O)c1cn(S(=O)(=O)c2ccccc2)c2ccccc12 | Not Active | Not Active |  | 
O=C(c1ccc2ccccc2c1)N1CCN(C(=O)c2cn(S(=O)(=O)c3ccccc3)c3ccccc23)CC1 | Not Active | Not Active |  | 
Nc1cccc(-n2cc(C(=O)N3CCN(C(=O)c4coc5ccccc5c4=O)CC3)c3ccccc32)c1 |  |  | 14.1 µM | 20 µM
Nc1cccc(-n2cc(C(=O)N3CCN(C(=O)C4COc5ccccc5C4=O)CC3)c3cc(N)ccc32)c1 (configuration not stated) | Not Active | Not Active |  | 

SMILES | Kd (Tumor necrosis factor [1]) | IC50 (Tumor necrosis factor [2]) | Kd (Tumor necrosis factor [1]; read-out: Kd) | IC50 (Tumor necrosis factor [3])
O=C(c1coc2ccccc2c1=O)N1CCN(C(=O)c2cn(-c3cccc([N+](=O)[O-])c3)c3ccccc23)CC1 |  | Not Active | 25.4 µM | 
O=C(c1ccccc1)N1CCN(Cc2cn(-c3cccc(C(F)(F)F)c3)c3ccccc23)CC1 |  |  | 2.14 µM | 20 µM
Cc1ccc2occ(CN3CCN(Cc4cn(-c5cccc(C(F)(F)F)c5)c5ccccc45)CC3)c(=O)c2c1 |  |  | 4.78 µM | 15 µM
CN(CCN(C)C(=O)c1cn(S(=O)(=O)c2cccc([N+](=O)[O-])c2)c2ccccc12)C(=O)c1coc2ccccc2c1=O |  |  | 3.16 µM | 40 µM
Nc1cccc(-n2cc(C(=O)N3CCN(C(=O)c4coc5ccccc5c4=O)CC3)c3cc(N)ccc32)c1 |  |  | 15.6 µM | 40 µM
CN(CCN(C)C(=O)c1cn(S(=O)(=O)c2ccccc2)c2ccccc12)C(=O)c1ccc2ccccc2c1 |  | Not Active | 25 µM | 
O=C(c1ccc2ccccc2c1)N1CCN(Cc2cn(-c3cccc(C(F)(F)F)c3)c3ccc([N+](=O)[O-])cc23)CC1 | Not Active | Not Active |  | 
O=C(c1cn(-c2cccc(C(F)(F)F)c2)c2ccccc12)N1CCN(C(=O)n2ccnc2)CC1 |  | Not Active | > 35 µM | 
CN(CCN(C)C(=O)c1cn(S(=O)(=O)c2ccccc2)c2ccccc12)C(=O)c1coc2ccccc2c1=O |  |  | 7 µM | > 60 µM
Cc1cc2occ(CN3CCN(Cc4cn(-c5cccc(C(F)(F)F)c5)c5ccccc45)CC3)c(=O)c2cc1C |  |  | 10.1 µM | 15 µM
Cc1cc2occ(C(=O)N3CCN(C(=O)c4cn(-c5cccc(C(F)(F)F)c5)c5ccccc45)CC3)c(=O)c2cc1C |  | Not Active | 5.12 µM | 
CN(CCN(C)C(=O)c1cn(S(=O)(=O)c2ccccc2)c2ccccc12)C(=O)c1cccs1 |  | Not Active | 8.22 µM | 
O=C(c1coc2ccccc2c1=O)N1CCN(Cc2cn(-c3cccc(C(F)(F)F)c3)c3ccccc23)CC1 |  |  | 1.61 µM | 20 µM
O=C(NCCNC(=O)c1cn(S(=O)(=O)c2ccccc2)c2ccccc12)c1ccc2ccccc2c1 |  | Not Active | > 35 µM | 
O=C(c1ccc2ccccc2c1)N1CCN(Cc2cn(-c3cccc(C(F)(F)F)c3)c3ccccc23)CC1 |  |  | 7.82 µM | 40 µM
O=C(c1coc2ccccc2c1=O)N1CCN(C(=O)c2cn(S(=O)(=O)c3cccc([N+](=O)[O-])c3)c3ccccc23)CC1 |  |  | 16.8 µM | 40 µM
O=C(c1cccs1)N1CCN(C(=O)c2c[nH]c3ccc([N+](=O)[O-])cc23)CC1 |  | Not Active | 10.7 µM | 
Cc1cc2occ(C(=O)N(C)CCN(C)C(=O)c3cn(-c4cccc(C(F)(F)F)c4)c4ccccc34)c(=O)c2cc1C |  |  | 2.51 µM | > 60 µM
CN(CCN(C)C(=O)c1cn(-c2cccc(C(F)(F)F)c2)c2ccc([N+](=O)[O-])cc12)C(=O)c1coc2ccccc2c1=O |  | Not Active | 13.3 µM | 
CN(CCN(C)C(=O)c1cn(-c2cccc([N+](=O)[O-])c2)c2ccccc12)C(=O)c1coc2ccccc2c1=O |  | Not Active | 12.2 µM | 

Reference: ChEMBL document CHEMBL3739283, “Synthesis and biological evaluation of potential small moleculeinhibitors of tumor necrosis factor” (Medchemcomm, 2015)
